Assay [1] in a line: Antioxidant activity assessed as trolox equivalent of AAPH-induced radical scavenging activity at 1 to 8 uM pretreated for 15 mins followed by AAPH addition measured at 1 min interval for 80 mins by ORAC-FL assay. The class given is functional.
For assay [2], the target named is T1, Amyloid-beta precursor protein (Homo sapiens, UniProt P05067). As to the kind of experiment: Inhibition of HFIP-pretreated amyloid beta (1 to 42) (unknown origin) self-induced aggregation at 50 uM after 48 hrs by thioflavin T-based fluorometric assay relative to control.
Assay [3] can be described thus: Inhibition of Cu2+-induced amyloid beta (1 to 42 residues) (unknown origin) aggregation at 50 uM after 24 hrs by thioflavin T-based fluorometric assay relative to control.
Assay [4] is described as follows: Metal chelating activity assessed as Al3+-compound complex formation at 30 uM after 30 mins by UV-Vis spectroscopic method.
The target of assay [5] is T1, Amyloid-beta precursor protein. Kind of assay: Inhibition of HFIP-pretreated amyloid beta (1 to 42) (unknown origin) self-induced aggregation after 48 hrs by thioflavin T-based fluorometric assay.
Assay [6] has as its target Acetylcholinesterase (Electrophorus electricus) (UniProt O42275). Kind of assay: Potency index, ratio of donepezil effect to test compound effect for inhibition of electric eel AChE-induced amyloid beta (1 to 42) aggregation.
Assay [7] is described as follows: Metal chelating activity assessed as Zn2+-compound complex formation at 30 uM after 30 mins by UV-Vis spectroscopic method.
The target of assay [8] is T1, Amyloid-beta precursor protein. Kind of assay: Inhibition of HFIP-pretreated amyloid beta (1 to 42) (unknown origin) self-induced aggregation at 25 uM after 48 hrs by thioflavin T-based fluorometric assay relative to control.
Assay [9] can be described thus: Metal chelating activity assessed as stoichiometric ratio of Cu2+-compound complex at 30 uM after 30 mins by Job plot analysis.
A short description of assay [10]: Metal chelating activity assessed as Cu2+-compound complex formation by measuring shift in maximum absorption wavelength at 30 uM after 30 mins by UV-Vis spectroscopic method.
Assay [11] addresses T1, Amyloid-beta precursor protein. As to the kind of experiment: Disaggregation of self-induced amyloid beta (1 to 42) (unknown origin) assessed as appearance of sparse fibrils at 50 uM after 48 hrs by transmission electron microscopic analysis.
The target is the same in assay [12]. Kind of assay: Inhibition of HFIP-pretreated amyloid beta (1 to 42) (unknown origin) self-induced aggregation at 75 uM after 48 hrs by thioflavin T-based fluorometric assay relative to control.
Assay [13] can be described thus: Metal chelating activity assessed as Fe2+-compound complex formation by measuring shift in maximum absorption wavelength at 30 uM after 30 mins by UV-Vis spectroscopic method.
Assay [14] can be described thus: Metal chelating activity assessed as Al3+-compound complex formation by measuring shift in maximum absorption wavelength at 30 uM after 30 mins by UV-Vis spectroscopic method.
Assay [15] can be described thus: Metal chelating activity assessed as Zn2+-compound complex formation by measuring shift in maximum absorption wavelength at 30 uM after 30 mins by UV-Vis spectroscopic method.

The structures appear in SMILES notation. Active and inactive are the calls of the source. The rule behind the calls is not given here.

T1 sequence (P05067 whole entry, the tested form may be a part): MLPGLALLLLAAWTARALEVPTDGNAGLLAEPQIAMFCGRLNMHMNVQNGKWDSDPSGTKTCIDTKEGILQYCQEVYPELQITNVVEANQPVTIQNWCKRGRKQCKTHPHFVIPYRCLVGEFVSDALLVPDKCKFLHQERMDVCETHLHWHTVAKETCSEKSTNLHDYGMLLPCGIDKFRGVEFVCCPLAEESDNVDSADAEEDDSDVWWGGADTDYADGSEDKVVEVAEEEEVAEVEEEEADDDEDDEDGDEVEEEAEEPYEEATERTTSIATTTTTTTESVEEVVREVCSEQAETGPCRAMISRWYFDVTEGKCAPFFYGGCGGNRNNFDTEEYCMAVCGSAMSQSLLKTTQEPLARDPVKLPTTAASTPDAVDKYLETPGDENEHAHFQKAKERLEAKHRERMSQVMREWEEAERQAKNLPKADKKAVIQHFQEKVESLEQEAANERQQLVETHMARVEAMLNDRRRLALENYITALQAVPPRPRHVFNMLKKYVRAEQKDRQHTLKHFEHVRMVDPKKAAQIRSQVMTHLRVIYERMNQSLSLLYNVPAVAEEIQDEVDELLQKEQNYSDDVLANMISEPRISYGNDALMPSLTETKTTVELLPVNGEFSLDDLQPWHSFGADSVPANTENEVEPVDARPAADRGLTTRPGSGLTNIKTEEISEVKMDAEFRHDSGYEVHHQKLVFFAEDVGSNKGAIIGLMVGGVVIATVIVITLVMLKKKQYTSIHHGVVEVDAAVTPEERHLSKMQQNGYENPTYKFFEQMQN
Sequence of Acetylcholinesterase (Electrophorus electricus) (O42275 24-633 limits assumed): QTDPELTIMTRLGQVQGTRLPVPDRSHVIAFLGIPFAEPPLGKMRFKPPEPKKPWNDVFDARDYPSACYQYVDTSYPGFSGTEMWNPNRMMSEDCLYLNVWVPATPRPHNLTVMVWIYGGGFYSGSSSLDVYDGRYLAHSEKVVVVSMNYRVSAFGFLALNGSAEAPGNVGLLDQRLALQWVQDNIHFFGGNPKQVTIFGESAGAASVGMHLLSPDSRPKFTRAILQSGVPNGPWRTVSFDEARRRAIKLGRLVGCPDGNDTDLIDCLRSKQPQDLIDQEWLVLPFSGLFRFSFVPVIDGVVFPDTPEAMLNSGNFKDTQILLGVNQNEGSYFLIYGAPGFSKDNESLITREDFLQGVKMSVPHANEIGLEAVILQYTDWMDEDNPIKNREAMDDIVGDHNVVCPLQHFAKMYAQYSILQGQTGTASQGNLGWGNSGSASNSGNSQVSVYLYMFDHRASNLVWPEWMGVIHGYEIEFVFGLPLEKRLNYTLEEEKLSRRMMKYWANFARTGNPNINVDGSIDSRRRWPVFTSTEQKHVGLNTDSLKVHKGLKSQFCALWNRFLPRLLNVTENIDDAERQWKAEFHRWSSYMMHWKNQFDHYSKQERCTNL

As for `CCOc1cc(CNc2ccc(F)cc2F)ccc1Oc1ccnc2cc(Cl)ccc12`, the Activity (umolequiv/umol) in assay [1] was 2.37. The inhibition (in general, the percentage by which the read-out fell short of the control) in assay [2] was 27.8%.

`CCOc1cc(CNc2ccccn2)ccc1Oc1ccnc2cc(Cl)ccc12`: the Activity (umolequiv/umol) in [1] is 0.55. For the same molecule, in assay [2], the inhibition is 41.5%.

For the molecule `CCOc1cc(CNc2cccc(C(F)(F)F)c2)ccc1Oc1ccnc2cc(Cl)ccc12`, the Activity (umolequiv/umol) in [1] was 1.56. Besides, the inhibition in assay [2] was found to be 30%.

For `CCOc1cc(CNc2cccc(C)n2)ccc1Oc1ccnc2cc(Cl)ccc12`, in assay [1], the Activity (umolequiv/umol) worked out at 0.87. Also, in assay [2], the inhibition is 41.6%.

The molecule `COc1cc(/C=C/C(=O)CC(=O)/C=C/c2ccc(O)c(OC)c2)ccc1O` showed an inhibition in assay [3] of 52.9%.

Consider `CCOc1cc(CNc2ccc(C)cc2)ccc1Oc1ccnc2cc(Cl)ccc12`, for which the Activity (umolequiv/umol) in [1] was determined as 2.28. For the same molecule, the inhibition in assay [2] came to 46.8%.

`CCOc1cc(CNc2ccccc2)ccc1Oc1ccnc2cc(Cl)ccc12`: the result in [4], in assay [7] and in [11] was Active. Besides, the half-inhibitory concentration (IC50) – broadly, the concentration needed to halve the response being measured – in [5] came to 44.5 µM. The inhibition came to 22.4% in assay [3], 37.1% in assay [8], 53.6% in [2] and 3.37% in assay [12]. Moreover, the results for the Ratio in assay [6] and in [9] were > 2 and 0.5, respectively. In addition, in assay [1], the Activity (umolequiv/umol) came out at 2.72. In addition, the Activity in assay [10] and in assay [13] was 305 nm in each case.

Take `CCOc1cc(CNc2ccc(OC)cc2)ccc1Oc1ccnc2cc(Cl)ccc12`: the half-maximal inhibitory concentration (IC50) in assay [5] stood at 46.4 µM. Also, the inhibition in [3] is 32.7%; in assay [8] it was 26.7%; in assay [2] it was 53.7%; in assay [12], 6.89%. Besides, the Ratio is > 2 in [6] and 0.8 in [9]. The Activity is 304 nm in [14], 304 nm in assay [15], 304 nm in [10] and 305 nm in assay [13]. Besides, the Activity (umolequiv/umol) in assay [1] was 1.95. The outcome in [11] was Active.
